The text below walks through data of publication doi:10.1101/2023.11.21.567704v1 (biorxiv, 2023).

The target in test [1] is T1, MtbFolB (Mycobacterium tuberculosis, UniProt P9WNC5).
T1 sequence (P9WNC5 1-133): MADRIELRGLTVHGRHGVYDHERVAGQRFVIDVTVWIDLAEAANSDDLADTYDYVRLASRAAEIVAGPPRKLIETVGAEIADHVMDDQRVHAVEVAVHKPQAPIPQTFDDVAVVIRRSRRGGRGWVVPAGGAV
The test is described as follows: end-point fluorescence assay. In kind it is biochemical.

Test [2] deals with T1, MtbFolB. In words: biochemical. The settings on record: read-out: % inhibition.
Test [3] deals with T1, MtbFolB. In words: biochemical.
Test [4] addresses T1, MtbFolB. In words: primary screen, end-point fluorescence assay, 384-well, […] h. In kind it is biochemical. The settings on record: 5 µM DHNP, 14 nM enzyme, pH 8.0, 24 °C, 1% DMSO.

For orientation: IC50 means the concentration needed to halve the response being measured. In the case of `CN(C)c1ccc(NS(=O)(=O)c2ccc3ccn(C)c3c2)cc1` [compound 24, 24], the half-inhibitory concentration (IC50) against MtbFolB [1] was > 100 µM.
One may read the inhibition as the share of the control response that was lost under treatment. For `Cc1ccc(-n2c(=O)cc(C)n2C(=O)C(C)Oc2ccccc2)cc1C` (stereo not drawn) [compound 22, 22], the concentration for half-maximal inhibition (IC50) was determined as 13.5 µM at MtbFolB [1] and 172 ± 14 µM on MtbFolB [3]. The inhibition at 20 µM on MtbFolB [2] came to 29.2%.
With `O=S(=O)(Nc1ccc(-n2ccnc2)cc1)c1ccc(Br)s1` [compound 33, 33], the IC50 against MtbFolB [1] is > 100 µM.
With `Cc1cc(=O)n(-c2ccccc2)n1C(=O)C(C)Oc1ccccc1` (stereo not drawn) [compound 20, 20], the values for the IC50 against MtbFolB [1] and against MtbFolB [3] were 23.1 µM and 362 ± 82 µM, respectively. Further, the inhibition at 20 µM on MtbFolB [2] is 29.9%.
In turn, `CCc1cc(N2CCC[C@@H](O)C2)ccc1NS(=O)(=O)c1ccc(Br)s1` [compound 35, 35] had a half-maximal inhibitory concentration (IC50) against MtbFolB [1] of 29.1 µM.
As for `O=C(Nc1nc2ccccc2n1Cc1ccc(F)cc1)C1CCC(F)(F)CC1` [compound 14], the inhibition at 20 µM on MtbFolB [2] came to 36.6%.
On the same count and under the same terms, then `O=C(CCC(=O)c1ccc(-c2ccccc2)cc1)Nc1nncs1` [compound 2], with 53.2%.
The term % inhibition denotes the relative decrease from the control value, in per cent. A lower % inhibition goes with a weak effect. `O=C1NCN(c2ccccc2)C12CCN(CC(O)COc1ccccc1C1CCCC1)CC2` (stereo not drawn) [compound 17, 17]: at MtbFolB [4], the “% inhibition at 20 μM” value is listed as 32.9%.
In the case of `CC(C)c1ccc(C(C)NS(=O)(=O)c2ccc(Br)s2)cc1` (stereo not drawn) [compound 37, 37], at MtbFolB [1], the IC50 was > 100 µM.
Turning to `Cc1ccc(-n2c(=O)cc(C)n2C(=O)Cc2cccs2)cc1C` [compound 9, 9], on MtbFolB [2], the inhibition at 20 µM is 40.8%. At MtbFolB [3], this compound yielded a concentration for half-maximal inhibition (IC50) of 434 ± 64 µM.
`O=C(CCC(=O)c1ccc(-c2ccccc2)cc1)Nc1nncs1` [compound 2, 2] registered a concentration for half-maximal inhibition (IC50) against MtbFolB [1] of 8 µM.
Regarding `O=S(=O)(Nc1ccc(N2CCCCC2)cc1)c1ccc(Br)s1` [compound 32, 32], on MtbFolB [1], the half-maximal inhibitory concentration (IC50) was determined as 11.3 µM.
With `COc1ccc(CC(=O)n2c(C)cc(=O)n2-c2ccccc2)cc1` [compound 16, 16], on MtbFolB [2], the inhibition at 20 µM worked out at 35.1%.
On MtbFolB [1], `Cc1noc(C)c1S(=O)(=O)Nc1ccc(N(C)C)cc1` [compound 27, 27] yielded an IC50 of 9.2 µM.
Take `CN(C)c1ccc(NS(=O)(=O)c2ccc(-c3ccc(C(F)(F)F)cc3)cc2)cc1` [compound 29, 29]: on MtbFolB [1], the IC50 is > 100 µM.
Turning to `Cc1cc(=O)n(-c2ccccc2)n1C(=O)Cc1cccs1` [compound 3, 3], the half-inhibitory concentration (IC50) amounted to 30.1 µM on MtbFolB [1] and 250 ± 30 µM at MtbFolB [3]. Further, the inhibition at 20 µM at MtbFolB [2] was 52.5%.
Regarding `O=S(=O)(Nc1ccc(N2CCN(S(=O)(=O)c3ccc(Br)s3)CC2)cc1)c1ccc(Br)s1` [compound 39, 39], at MtbFolB [1], 10.6 µM corresponded to half-maximal inhibition (IC50).
Consider `Cc1cc(=O)n(-c2ccccc2)n1C(=O)c1ccc(Cl)cc1` [compound 21, 21], for which the half-inhibitory concentration (IC50) at MtbFolB [1] is 34.4 µM. Also, the inhibition at 20 µM at MtbFolB [2] turned out to be 29.8%.
On MtbFolB [1], `O=C(Nc1nc2ccccc2n1Cc1ccc(F)cc1)C1CCC(F)(F)CC1` [compound 14, 14] yielded a 50% inhibitory concentration (IC50) of 17.2 µM.
Consider `CN(C)c1ccc(NS(=O)(=O)c2cnn(C)c2)cc1` [compound 25, 25], for which the half-inhibitory concentration (IC50) at MtbFolB [1] was 6.8 µM.
The same measure, in the same setting: then `O=S(=O)(NCc1ccc(N2CCC(c3ccc(OC(F)(F)F)cc3)CC2)cc1)c1ccc(Br)s1` [compound 38, 38], with > 100 µM; and `CC(=O)Nc1ccc(NS(=O)(=O)c2ccc(Br)s2)cc1` [compound 34, 34], with > 100 µM.
